According to US11952365B2, “Anti-viral compounds” (Aligos Therapeutics, Inc., priority 2020, dated 2024):
pEC50, pIC50: −log10 of the molar value. Where two headings read alike, the source gives them in different places.

Experiments:
human cathepsin L = target: T1, human cathepsin L (Homo sapiens, UniProt P07711); assay: cathepsin L assay; format: biochemical; details: 10 pM human cathepsin L, Z-FR-AMC 2 μM, class symbols
T1 construct: purchased R&D Systems
Experimental: For the cathepsin L assay, 10 pM of human cathepsin L (R&D Systems; Minneapolis, MN) was preincubated for 30 mins with test compounds. Reactions were initiated by the addition of a peptide substrate Z-FR-AMC (final concentration 2 μM, Anaspec; Fremont, CA). Fluorescence was measured at 2-minute intervals for 30 mins using a 355/460 excitation/emission filter module on an Envision plate reader (Perkin Elmer; Waltham, MA). The IC50 values were calculated for each assay by fitting the curves using a four-parameter equation in GraphPad Prism.

3CLpro = 3CLpro (Severe acute respiratory syndrome coronavirus 2, UniProt P0DTD1); assay: SARS-CoV-2 3CLpro protease assay (duplex, SAMDI-MS); format: biochemical; set-up: For the duplex assay, 3CLpro and HRV3C was added; details: 3CLpro, 30 mins preincubation, class symbols; read-out: SARS-Cov-2 IC50
in vitro = details: African green monkey, VeroE6 + CP (CC50), Vero E6-eGFP cells with CP-100356, absence of virus, MTS
[1] = tested on: SARS-CoV-2-GHB-03021/2020; assay: microbe, parasite or virus in culture; format: cell-based; details: Severe acute respiratory syndrome coronavirus 2, Vero C1008, 96 h; read-out: VeroE6 + CP (EC50)
HRV3C = HRV3C (Human rhinovirus 14, UniProt P03303); assay: HRV3C protease assay (duplex, SAMDI-MS); format: biochemical, HRV; details: 30 mins preincubation
Experimental: Protease assays were performed in 384-well low volume polypropylene microtiter plates at ambient temperature. For the duplex assay, 3CLpro and HRV3C was added using a Multidrop Combi (Thermo Scientific; Waltham, MA) and preincubated for 30 mins with small molecules. The reactions were initiated by the addition of the two peptide substrates. The reactions were incubated for 30 mins and quenched by the addition of 0.5% formic acid (final) with subsequent neutralization using 1% sodium bicarbonate (final). Internal standard peptides were added in 20 mM Hepes pH 8.0 for quantitation of the protease products. For SAMDI-MS analysis, 2 μL of each reaction mixture was transferred using a 384-channel automated liquid handler to SAMDI biochip arrays functionalized with a neutravidin-presenting self-assembled monolayer. The SAMDI arrays were incubated for 1 h in a humidified chamber to allow the specific immobilization of the biotinylated peptide substrates, cleaved products and internal standards. The samples were purified by washing the SAMDI arrays with deionized ultrafiltered water and dried with compressed air. A matrix comprising alpha-cyano cinnamic acid in 80% acetonitrile:20% aqueous ammonium citrate was applied in an automated format by dispensing 50 nL to each spot in the array. SAMDI-MS was performed using reflector-positive mode on an AB Sciex TOF-TOF 5800 System (AB Sciex, Framingham, MA) with 400 shots/spot analyzed in a random raster sampling. For data analysis, area under the curves (peaks) (AUCs) for the product and internal standard were calculated using the TOF/TOF Series Explorer (AB Sciex), and the amount of product formed was calculated using the equation (AUC product/AUC internal standard). The amount of product generated was calculated using the ratio of product area under the curve (AUC) divided by the AUC of the internal standard. Negative controls were pre-quenched with 0.5% formic acid final. Assay robustness was determined by Z-Factor. The IC50s were determined by fitting the curves using a four-parameter equation in Graphpad Prism 8.

[2] = tested on: human beta-coronavirus OC43; assay: microbe, parasite or virus in culture; format: cell-based; details: Betacoronavirus 1, OC43, HeLa, 144 h, OC43 in HeLa cells, 6 days at 33° C., read-out: EC50
[3] = Cytotoxicity plates without OC43 virus (cell-titer-glo); format: cell-based, human; details: human; HeLa cells without OC43 virus, class symbols
Experimental: The human beta-coronavirus OC43 was purchased from ATCC (Manassas, VA) and propagated using HCT-8 human colorectal epithelial cells (ATCC). HeLa human cervical epithelial cells (ATCC) were used as susceptible host cell lines and were cultured using EMEM media, supplemented with 10% fetal bovine serum (FBS), 1% (v/v) penicillin/streptomycin (P/S), 1% (v/v) HEPES and 1% (v/v) Cellgro Glutagro™ supplement (all Corning, Manassas, VA) at 37° C. For the OC43 antiviral assay, 1.5×10^4 HeLa cells per well were plated in 100 μL complete media in white 96-well plates with clear bottoms at 37° C. for up to 24 h to facilitate attachment and allow cells to recover from seeding stresses. Next day, the cell culture medium was removed. Serially diluted compounds in 100 μL assay media (EMEM, 2% FBS, 1% P/S, 1% Cellgro Glutagro™ supplement, 1% HEPES) were added to the cells and incubated for 4H at 37° C. in a humidified 5% CO2 incubator. 100 μL of OC43 virus stock was diluted to a concentration known to produce optimal cytopathic effect, inducing 80-90% reduction in cell viability. 96-well plates were incubated for 6 (HeLa) days at 33° C.; each plate contains uninfected control wells as well as virus-infected wells that were not treated with compound. Cytotoxicity plates without the addition of OC43 virus were carried out in parallel. At the end of the incubation period, 100 μL cell culture supernatant was replaced with 100 μL cell-titer-glo reagent (Promega, Madison, WI) and incubated for at least 10 min at rt prior to measuring luminescence. Luminescence was measured on a Perkin Elmer (Waltham, MA) Envision plate reader. Antiviral % inhibition was calculated as follows: [(Compound treated cells infected sample)−(no compound infected control)]/[(Uninfected control)−(no compound infected control)]*100; Using GraphPad (San Diego, CA) prism software version 8.3.1, the antiviral dose-response plot was generated as a sigmoidal fit, log(inhibitor) vs response-variable slope (four parameters) model and the EC50 was calculated which is the predicted compound concentration corresponding to a 50% inhibition of the viral cytopathic effect.

[4] = HRV3C, class symbols, read-out: HRV IC50

Row | SMILES | pIC50 (human cathepsin L) | pIC50 (3CLpro) | CC50 (in vitro; numeric bounds) [µM] | pEC50 [1] | pIC50 (HRV3C; [4]) | pEC50 ([2]; class symbols) | CC50 at 6 days [3] [µM] | pIC50 (HRV3C; HRV IC50, HRV3C, bound) | pIC50 (HRV3C; HRV IC50, HRV3C, class symbols) | pEC50 ([2]; bound) | CC50 (in vitro; class symbols) [µM]
1 | O=C(NCc1ccccc1)C(=O)C(C[C@@H]1CCNC1=O)NC(=O)[C@@H]1[C@H]2CC[C@H](C2)N1C(=O)c1cc2ccccc2[nH]1 (some centres unmarked) [Compound 8] | 6.00 to 7.00 | 5.70 to 6.70 | > 100 | 4.00 to 5.00 | 4.70 to 5.70 | 5.00 to 6.00 | > 10 |  |  |  | 
2 | CC1(C)[C@@H]2[C@@H](C(=O)NC(C[C@@H]3CCNC3=O)C(=O)C(=O)NCc3ccccc3)N(C(=O)c3cc4ccccc4[nH]3)C[C@@H]21 (stereo partly drawn) [Compound 4, N-benzyl-3-[[(1R,2S,5S)-3-(1H-indole-2-carbonyl)-6,6-dimethyl-3-azabicyclo[3.1.0]hexan-2-yl]formamido]-2-oxo-4-[(3S)-2-oxopyrrolidin-3-yl]butanamide] | 6.00 to 7.00 | 5.70 to 6.70 | > 100 | 5.00 to 6.00 | 4.70 to 5.70 | 5.00 to 6.00 | > 10 |  |  |  | 
3 | COc1cccc2[nH]c(C(=O)N3C[C@@H]4CCC[C@@H]4[C@H]3C(=O)N[C@@H](C[C@@H]3CCNC3=O)C(=O)c3nc4ccccc4o3)cc12 [Compound 75, (1S,3aR,6aS)—N-[(2S)-1-(1,3-benzoxazol-2-yl)-1-oxo-3-[(3S)-2-oxopyrrolidin-3-yl]propan-2-yl]-2-(4-methoxy-1H-indole-2-carbonyl)-hexahydro-1H-cyclopenta[c]pyrrole-1-carboxamide] | ≤ 5.00 | 6.70 to 7.70 | > 100 | 5.00 to 6.00 |  | 6.00 to 7.00 | > 10 | < 5.00 |  |  | 
4 | CC1(C)C[C@@H](C(=O)NC(C[C@@H]2CCNC2=O)C(=O)C(=O)NCc2ccccc2)N(C(=O)c2cc3ccccc3[nH]2)C1 (some centres unmarked) [Compound 11] | > 7.00 | 5.70 to 6.70 | > 100 | 4.00 to 5.00 | 4.70 to 5.70 | 5.00 to 6.00 | > 10 |  |  |  | 
5 | COc1cccc2[nH]c(C(=O)N3C[C@@H]4CCC[C@@H]4[C@H]3C(=O)N[C@H](C=O)C[C@@H]3CCNC3=O)cc12 [Compound 14A, (1S,3aR,6aS)-2-(4-methoxy-1H-indole-2-carbonyl)-N-[(2S)-1-oxo-3-[(3S)-2-oxopyrrolidin-3-yl]propan-2-yl]-hexahydro-1H-cyclopenta[c]pyrrole-1-carboxamide] | ≤ 5.00 | 6.70 to 7.70 | > 100 | 4.00 to 5.00 | 5.70 to 6.70 | 5.00 to 6.00 | > 10 |  |  |  | 
6 | O=C(NCc1ccccc1)C(=O)C(C[C@@H]1CCNC1=O)NC(=O)[C@@H]1CCCCN1C(=O)c1cc2ccccc2[nH]1 (stereo partly drawn) [Compound 1, (2S)—N-(4-(benzylamino)-3,4-dioxo-1-((S)-2-oxopyrrolidin-3-yl)butan-2-yl)-1-(1H-indole-2-carbonyl)piperidine-2-carboxamide] |  | 4.70 to 5.70 | > 100 | < 4.00 |  | 5.00 to 6.00 | > 10 |  | 4.00 to 4.70 |  | 
7 | O=C(NCc1ccccc1)C(=O)C(C[C@@H]1CCNC1=O)NC(=O)[C@@H]1C[C@@H](OCc2ccccc2)CN1C(=O)c1cc2ccccc2[nH]1 (some centres unmarked) [Compound 6] |  | 4.70 to 5.70 | > 100 | < 4.00 |  | 5.00 to 6.00 | > 10 |  | 5.70 to 6.70 |  | 
8 | O=C1NCC[C@H]1C[C@H](NC(=O)[C@@H]1[C@H]2CCC[C@H]2CN1C(=O)c1cc2c(=O)[nH]ccc2[nH]1)C(=O)CO [Compound 76, (1S,3aR,6aS)—N-[(2S)-4-hydroxy-3-oxo-1-[(3S)-2-oxopyrrolidin-3-yl]butan-2-yl]-2-{4-oxo-1H,5H-pyrrolo[3,2-c]pyridine-2-carbonyl}-hexahydro-1H-cyclopenta[c]pyrrole-1-carboxamide] | ≤ 5.00 | 6.70 to 7.70 | > 100 | 4.00 to 5.00 |  |  | > 10 |  | 5.70 to 6.70 | < 5.00 | 
9 | O=C1NCC[C@H]1C[C@H](NC(=O)[C@@H]1[C@H]2CCC[C@H]2CN1C(=O)c1cc2ncccc2[nH]1)C(=O)CO [Compound 78, (1S,3aR,6aS)—N—((S)-4-hydroxy-3-oxo-1-((S)-2-oxopyrrolidin-3-yl)butan-2-yl)-2-(1H-pyrrolo[3,2-b]pyridine-2-carbonyl)octahydrocyclopenta[c]pyrrole-1-carboxamide] | ≤ 5.00 | 6.70 to 7.70 | > 100 | 4.00 to 5.00 | 4.70 to 5.70 | 5.00 to 6.00 | > 10 |  |  |  | 
10 | O=C(NCc1ccccc1)C(=O)C(C[C@@H]1CCNC1=O)NC(=O)[C@@H]1[C@H]2CCC[C@H]2CN1C(=O)c1cc2ccccc2[nH]1 (stereo partly drawn) [Compound 2, (1S,3aR,6aS)—N-(4-(benzylamino)-3,4-dioxo-1-((S)-2-oxopyrrolidin-3-yl)butan-2-yl)-2-(1H-indole-2-carbonyl)-octahydrocyclopenta[c]pyrrole-1-carboxamide] | 5.00 to 6.00 | 5.70 to 6.70 |  | 5.00 to 6.00 | 4.70 to 5.70 | 6.00 to 7.00 | > 10 |  |  |  | > 10
11 | O=C(NCc1ccccc1)C(=O)C(C[C@@H]1CCNC1=O)NC(=O)[C@@H]1C[C@@H](Oc2ccccc2)CN1C(=O)c1cc2ccccc2[nH]1 (some centres unmarked) [Compound 5] |  | 4.00 to 4.70 | > 100 | 4.00 to 5.00 |  | 5.00 to 6.00 | > 10 |  | 5.70 to 6.70 |  | 
12 | CC(C)(C)O[C@@H]1C[C@@H](C(=O)NC(C[C@@H]2CCNC2=O)C(=O)C(=O)NCc2ccccc2)N(C(=O)c2cc3ccccc3[nH]2)C1 (some centres unmarked) [Compound 10] |  | 4.70 to 5.70 | > 100 | < 4.00 |  | 5.00 to 6.00 | > 10 |  | 5.70 to 6.70 |  | 
13 | CO[C@@H]1C[C@@H](C(=O)NC(C[C@@H]2CCNC2=O)C(=O)C(=O)NCc2ccccc2)N(C(=O)c2cc3ccccc3[nH]2)C1 (some centres unmarked) [Compound 12] |  | 4.70 to 5.70 | > 100 | < 4.00 |  | 4.00 to 5.00 | > 10 |  | 4.00 to 4.70 |  | 
